Test results taken from paper PMC7062083, “Metabolite identification, tissue distribution, excretion and preclinical pharmacokinetic studies of ET-26-HCl, a new analogue of etomidate” (Royal Society Open Science, 2020).
Several values for one entry are separate records, joined by “and”; a condition that tells them apart may be missing. Equal entries are not always repeated. Where two headings read alike, the source gives them in different places.

Experiments:
[1] = Plasma protein binding, equilibrium dialysis, mouse plasma; type: in vitro ADME
Protocol: (§1) The PPB of ET-26-HCl in mouse, rat, beagle dog, monkey and human plasma was determined according to the equilibrium dialysis method. In brief, 1 ml of control plasma samples in dialysis bag was incubated in 10 ml of PBS containing ET-26-HCl at a final concentration of 2.21 × 10^2, 1.77 × 10^3 and 3.54 × 10^3 […] at 4°C with an equilibrium time of 9 h to reach the mass balance binding condition. A 100 µl aliquots of the PBS buffer and the plasma in the dialysis bag were transferred to 2 ml EP tubes and diluted to 995 µl with PBS and analysed on the LC–MS/MS system. The PPB (fppb) was calculated as follows: fppb=Din−Dout/Din×100% , where Din is the plasma drug concentration in the dialysis bag and Dout is the dialysate drug concentration.

[2] = Metabolic stability in rat liver microsomes; type: in vitro ADME
Protocol: (§2) Samples were analysed by LC–MS/MS as mentioned above.2.1 CLint, in vitro=0.693/t1/2/Cprotein, 2.2 CLint, in vivo=CLint, in vitro×Houston×LW/1000 2.3 andCLhep in vivo=HBF × fu ×CLint, in vivo/HBF + fu ×CLint, in vivo. Where Cprotein is microsomal protein concentration (mg ml^−1); Houston is Houston factor (45 mg of microsomal protein g^−1 liver); LW is liver weight (g) (per species); HBF is hepatic blood flow (ml min^−1) (per species); fu (two places) and later is unbound fraction (fu = 1 − %protein binding).

[3] = Dose tolerance pre-experiment in rats; type: in vivo
Protocol: For the PK study of beagle dogs and excretion test of rats, how do you identify those doses? As you described, beagle dogs in the 6 groups received three doses of ET-26- HCl: 1.045 mg/kg, 2.090 mg/kg, and 4.180 mg/kg as low (L), medium (M), and high (H) dose; however, the rats received a single 4.2 mg/kg dose of ET-26-HCl. Please provide the citations or calculation of […]
Thank the reviewer for this comment. According to the “Guidelines for non-clinical pharmacokinetic studies of drugs” of China Food and Drug Administration, the in vivo pharmacokinetic studies of animals should be performed with at least three dose groups, which the high dose is preferably close to the maximum tolerated dose, and the small dose is selected based on the limits of the effective dose of the animals. […]
kg and 1.045 mg/ kg for rat and dog, respectively, according to the results of the drug effect in the early stage of the cooperation laboratory. In our pre-experiment, individual rats appeared myoclonus after the 4-fold ED50 dose administration. When given the higher dose, some rats […]
Thus, the ED50, 2-fold ED50, and 4-fold ED50 dose were used as the low, middle and high dose group for the pharmacokinetic study in our previous research. Similar dosage design was used in our present work. The middle dose (4.2 mg/kg dose of ET-26-HCl) was utilized for the excretion test in rats. […]

[4] = Plasma protein binding, equilibrium dialysis, human plasma; type: in vitro ADME; details: human, plasma
Protocol: as §1

human plasma = assay: as above; type: in vitro ADME; details: overall over the three concentrations
Protocol: as §1

[5] = Metabolic stability in mouse liver microsomes; type: in vitro ADME
Protocol: as §2

[6] = Excretion (urine, faeces, bile) in Sprague Dawley rats; type: in vivo
Protocol: Concentrations of ET-26-HCl and ET-26-acid in biological samples were determined by liquid chromatography–tandem mass spectrometry (LC–MS/MS) after deproteinization with methanol. The bioanalytical method for simultaneous quantification of ET-26-HCl and ET-26-acid in the different matrix was fully validated according to FDA guidelines (electronic supplementary material, figure S1 and tables S1 and S2) in our previous study. Briefly, a 100 µl sample (plasma, tissue homogenate, bile, urine and faeces suspension) were spiked with 20 µl of IS solution and vortexed for 30 s. The mixture was then processed for protein precipitation with 300 µl methanol, followed by centrifugation at 12 000 r.p.m. for 5 min. Supernatant was collected and analysed by LC–MS/MS system.
SD rats (4 male and 4 female) received 4.2 mg kg^−1 of ET-26-HCl intravenously and were housed in metabolic cages. Urine and faeces from the treated rats were collected between 0–6, 6–12, 12–24, 24–30, 30–36 and 36–48 h post-dosing. Urine volume and faeces weight were measured and recorded.
Bile fistulas of SD rats (four male and four female) were cannulated with polyethylene tube (Instech Laboratories, Inc., USA) and bile was collected at the following time-points: 0–3, 3–6, 6–9, 9–12 and 12–24 h post-dosing. The volume of the collected bile was measured and stored at −80°C until analysis.

[7] = rats, i.v., cited from earlier work
[8] = Plasma protein binding, equilibrium dialysis, beagle dog plasma; type: in vitro ADME
Protocol: as §1

[9] = measured concentration 654 ng ml^−1
[10] = measured concentration 2.62 × 10^3 ng ml^−1, read-out: protein binding (converted)
[11] = measured concentration 5.23 × 10^3 ng ml^−1, read-out: protein binding (converted)
[12] = overall over the three concentrations, read-out: plasma protein binding rate (converted)
[13] = i.v. ET-26-HCl 4.2 mg kg^−1, collected to 48 h

SMILES: COCCOC(=O)c1cncn1[C@H](C)c1ccccc1.Cl [ET-26-HCl, (R)-2-methoxyethyl1-(1-phenylethyl)-1H-imidazole-5-carboxylate hydrochloride]
- fraction unbound at 9 h, 654 ng ml^−1 [1, 9]: 0.0453
- fraction unbound at 9 h [1, 10]: 0.0539
- fraction unbound at 9 h [1, 11]: 0.0702
- fraction unbound at 9 h [1, 12]: 0.0565 ± 0.000689
- CLint, in vitro ([2]; rat liver microsomes): 984 ml min g^−1 protein
- metabolic stability (in words) ([2]; rat liver microsomes): not metabolically stable
- CLint, in vitro ([2]; rat liver microsomes, Cprotein 0.33 mg ml^−1): 984 ± 68.6 ml min^−1 g^−1 protein
- extrapolated hepatic clearance normalized to body weight ([2]; rat, assumed body weight 0.25 kg (printed order)): 1.78 L·h/kg
- extrapolated CLhep in vivo ([2]; rat, from liver microsomes): 19.1 mL/min and 19.1 ± 0.1 mL/min
- extrapolated CLint, in vivo ([2]; rat, from liver microsomes): 443 ± 30.9 mL/min
- adverse signs observed ([3]; individual rats, after the 4-fold ED50 dose): myoclonus
- adverse signs observed ([3]; some rats, dose higher than 4-fold ED50): convulsions and even died
- fraction unbound at 9 h, 654 ng ml^−1 [4, 9]: 0.372
- fraction unbound at 9 h [4, 10]: 0.318
- fraction unbound at 9 h [4, 11]: 0.261
- fraction unbound at 9 h [4, 12]: 0.317
- plasma protein binding rate (human plasma): 68%
- CLint, in vitro ([5]; mouse liver microsomes): 629 ml min g^−1 protein
- metabolic stability (in words) ([5]; mouse liver microsomes): not metabolically stable
- CLint, in vitro ([5]; mouse liver microsomes, Cprotein 0.33 mg ml^−1): 629 ± 25.7 ml min^−1 g^−1 protein
- extrapolated CLhep in vivo ([5]; mouse, from liver microsomes): 2.8 ± 0.0 mL/min
- extrapolated CLint, in vivo ([5]; mouse, from liver microsomes): 42.4 ± 1.7 mL/min
- half-life ([5]; mouse, liver microsomes, pH 7.4, mouse liver microsomes, Cprotein 0.33 mg ml^−1): < 5 min
- accumulative excretion through bile ([6]; i.v. ET-26-HCl 4.2 mg kg^−1, bile collected to 24 h): 0.619%
- accumulative excretion through faeces [6, 13]: 0.076%
- accumulative excretion through urine [6, 13]: 11.97%
- AUC0-t ([7]; 2.1 mg/kg): 28.47 ± 3.41 mg·min/L
- CL ([7]; 2.1 mg/kg): 58 ± 11 mL/min/kg
- Cmax ([7]; 2.1 mg/kg): 1820 ± 200 ng/mL
- Vd ([7]; 2.1 mg/kg): 5.37 ± 0.72 L/kg
- t1/2 ([7]; 2.1 mg/kg): 65.4 ± 12.6 min
- λ ([7]; 2.1 mg/kg): 0.66 ± 0.24 h⁻¹
- AUC0-t ([7]; 4.2 mg/kg): 41.70 ± 3.61 mg·min/L
- CL ([7]; 4.2 mg/kg): 92 ± 8 mL/min/kg
- Cmax ([7]; 4.2 mg/kg): 3310 ± 210 ng/mL
- Vd ([7]; 4.2 mg/kg): 5.24 ± 1.33 L/kg
- t1/2 ([7]; 4.2 mg/kg): 39.6 ± 10.2 min
- λ ([7]; 4.2 mg/kg): 1.20 ± 0.36 h⁻¹
- AUC0-t ([7]; 8.4 mg/kg): 110.92 ± 9.04 mg·min/L
- CL ([7]; 8.4 mg/kg): 64 ± 5 mL/min/kg
- Cmax ([7]; 8.4 mg/kg): 7010 ± 360 ng/mL
- Vd ([7]; 8.4 mg/kg): 4.67 ± 0.99 L/kg
- t1/2 ([7]; 8.4 mg/kg): 51 ± 8.4 min
- λ ([7]; 8.4 mg/kg): 0.78 ± 0.12 h⁻¹
- time until cleared after intravenous administration [7]: ≤ 4 h
- fraction unbound at 9 h ([8]; beagle dog plasma, overall over the three concentrations, read-out: plasma protein binding rate (converted)): 0.34
- fraction unbound at 9 h, 654 ng ml^−1 ([8]; dog plasma, measured concentration 654 ng ml^−1): 0.345
- fraction unbound at 9 h ([8]; dog plasma, measured concentration 2.62 × 10^3 ng ml^−1, read-out: protein binding (converted)): 0.369
- fraction unbound at 9 h ([8]; dog plasma, measured concentration 5.23 × 10^3 ng ml^−1, read-out: protein binding (converted)): 0.306
